Results on 28 compounds are retold here after US20180044329A1, “3-SUBSTITUTED-1,2,4-OXADIAZOLE AND THIADIAZOLE COMPOUNDS AS IMMUNOMODULATORS” (AURIGENE DISCOVERY TECHNOLOGIES LIMITED, priority 2015, published 2018).

The experiment deals with Recombinant mouse PD-L1. Kind of experiment: Rescue of mouse splenocyte proliferation in the presence of recombinant PD-L1 (CFSE proliferation assay). It counts as cell-based. The note with it: compound at 100 nM; anti-CD3/CD28 stimulated mouse splenocytes + PD-L1; 72 h; stimulated splenocyte proliferation normalised as 100%; read-out: Percent rescue of splenocyte proliferation (@100 nM). Here is the method: Rescue of Mouse Splenocyte Proliferation in the Presence of Recombinant PD-L1
Recombinant mouse PD-L1 (rm-PDL-1, cat no: 1019-B7-100; R&D Systems) were used as the source of PD-L1.
Mouse splenocytes harvested from 6-8 weeks old C57 BL6 mice; RPMI 1640 (GIBCO, Cat #11875); DMEM with high glucose (GIBCO, Cat #D6429); Fetal Bovine Serum [Hyclone, Cat #SH30071.03]; Penicillin (10000 unit/mL)-Streptomycin (10,000 μg/mL) Liquid (GIBCO, Cat #15140-122); MEM Sodium Pyruvate solution 100 mM (100×), Liquid (GIBCO, Cat #11360); Nonessential amino acid (GIBCO, Cat #11140); L-Glutamine (GIBCO, Cat #25030); Anti-CD3 antibody (eBiosciences—16-0032); Anti-CD28 antibody (eBiosciences—16-0281); ACK lysis buffer (1 mL) (GIBCO, Cat #-A10492); Histopaque (density-1.083 gm/mL) (SIGMA 10831); Trypan blue solution (SIGMA-T8154); 2 mL Norm Ject Luer Lock syringe-(Sigma 2014-12); 40 μm nylon cell strainer (BD FALCON 35230); Hemacytometer (Bright line-SIGMA Z359629); FACS Buffer (PBS/0.1% BSA): Phosphate Buffered Saline (PBS) pH 7.2 (Hi-Media TS1006) with 0.1% Bovine Serum Albumin (BSA) (SIGMA A7050) and sodium azide (SIGMA 08591); 5 mM stock solution of CFSE: CFSE stock solution was prepared by diluting lyophilized CFSE with 180 μL of Dimethyl sulfoxide (DMSO C2H6SO, SIGMA-D-5879) and aliquoted in to tubes for further use. Working concentrations were titrated from 10 μM to 1 μM. (eBioscience-650850-85); 0.05% Trypsin and 0.02% EDTA (SIGMA 59417C); 96-well format ELISA plates (Corning CLS3390); BD FACS caliber (E6016); Recombinant mouse B7-H1/PDL1 Fc Chimera, (rm-PD-L1 cat no: 1019-B7-100).
Splenocytes harvested in a 50 mL falcon tube by mashing mouse spleen in a 40 μm cell strainer were further treated with 1 mL ACK lysis buffer for 5 min at room temperature. After washing with 9 mL of RPMI complete media, cells were re-suspended in 3 mL of 1× PBS in a 15 mL tube. 3 mL of Histopaque was added carefully to the bottom of the tube without disturbing overlaying splenocyte suspension. After centrifuging at 800×g for 20 min at room temperature, the opaque layer of splenocytes was collected carefully without disturbing/mixing the layers. Splenocytes were washed twice with cold 1× PBS followed by total cell counting using Trypan Blue exclusion method and used further for cell based assays.
Splenocytes were cultured in RPMI complete media (RPMI+10% fetal bovine serum+1 mM sodium pyruvate+10,000 units/mL penicillin and 10,000 μg/mL streptomycin) and maintained in a CO2 incubator with 5% CO2 at 37° C.
CFSE is a dye that passively diffuses into cells and binds to intracellular proteins. 1×10^6 cells/mL of harvested splenocytes were treated with 5 μM of CFSE in pre-warmed 1× PBS/0.1% BSA solution for 10 min at 37° C. Excess CFSE was quenched using 5 volumes of ice-cold culture media to the cells and incubated on ice for 5 min CFSE labelled splenocytes were further given three washes with ice cold complete RPMI media. CFSE labelled 1×10^5 splenocytes added to wells containing either MDA-MB231 cells (1×10^5 cells cultured in high glucose DMEM medium) or recombinant human PDL-1 (100 ng/mL) and compounds of the present invention. Splenocytes were stimulated with anti-mouse CD3 and anti-mouse CD28 antibody (1 μg/mL each) and the culture was further incubated for 72 h at 37° C. with 5% CO2. Cells were harvested and washed thrice with ice cold FACS buffer and % proliferation was analysed by flow cytometry with 488 nm excitation and 521 nm emission filters.
Percent splenocyte proliferation was analysed using cell quest FACS program and percent rescue of splenocyte proliferation by compound was estimated after deduction of % background proliferation value and normalising to % stimulated splenocyte proliferation (positive control) as 100%. […]

`CC(O)[C@H](NC(=O)N[C@@H](CC(N)=O)c1nc(-c2ccccn2)no1)C(=O)O` (stereo partly shown) [Compound 20]: the activity at 0.1 µM amounted to 27%. Regarding `Cc1ccc(-c2noc([C@H](CC(N)=O)NC(=O)N[C@H](C(=O)O)C(C)O)n2)o1` (stereo partly shown) [Compound 26], the activity at 0.1 µM amounted to 24%. Consider `O=C(O)CNC(=O)N[C@@H](CC(=O)O)c1nc(N2CCCC2)no1` [Compound 30], for which the activity at 0.1 µM was found to be 7%. The same measure for `C#CC[C@H](NC(=O)N[C@H](C(=O)O)C(C)O)c1nc(-c2cnccn2)no1` (stereo partly shown) [Compound 32]: 92%. `CC(O)[C@H](NC(=O)N[C@@H](CC(N)=O)c1nc([C@@H]2CNCCN2)no1)C(=O)O` (stereo partly shown) [Compound 45]: the activity at 0.1 µM was determined as 49%. The same measure for `CC(O)[C@H](NC(=O)N[C@@H](CC(N)=O)c1nc(N2CCNCC2)no1)C(=O)O` (stereo partly shown) [Compound 16]: 79%; for `CC(O)[C@H](NC(=O)N[C@@H](CC(N)=O)c1nc(C2(N)CCCCC2)no1)C(=O)O` (stereo partly shown) [Compound 49]: 16%. With `CC(O)[C@H](NC(=O)N[C@@H](CCC(=O)O)c1nc([C@@H]2COCCN2)no1)C(=O)O` (stereo partly shown) [Compound 47], the activity at 0.1 µM worked out at 57%. The same measure for `CC(O)[C@H](NC(=O)N[C@@H](CC(N)=O)c1nc(-c2cc(Cl)ccn2)no1)C(=O)O` (stereo partly shown) [Compound 22]: 39%; for `CC(O)[C@H](NC(=O)N[C@@H](CC(N)=O)c1nc(-c2cc(F)ccc2F)no1)C(=O)O` (stereo partly shown) [Compound 25]: 42%; for `NCCCC[C@H](NC(=O)N[C@@H](CC(N)=O)c1nc([C@H]2CCCCN2)no1)C(=O)O` [Compound 34]: 78%. For the compound `CC(O)[C@H](NC(=O)N[C@@H](CC(N)=O)c1nc([C@@H]2C[C@@H](O)CN2)no1)C(=O)O` (stereo partly shown) [Compound 51], the activity at 0.1 µM was found to be 44%. On to `C[C@H](NC(=O)N[C@@H](CCCCN)c1nc([C@@H]2CCCN2)no1)C(=O)O` [Compound 52], for which the activity at 0.1 µM came out at 46%. `CC(O)[C@H](NC(=O)N[C@@H](CC(N)=O)c1nc([C@@H]2CCCCN2)no1)C(=O)O` (stereo partly shown) [Compound 44]: the activity at 0.1 µM was 84%. For the compound `CC(O)[C@H](NC(=O)N[C@@H](CC(N)=O)c1nc(N2CCCCC2)no1)C(=O)O` (stereo partly shown) [Compound 15], the activity at 0.1 µM worked out at 54%. With `CC(O)[C@H](NC(=O)N[C@@H](CC(N)=O)c1nc([C@@H]2COCCN2)no1)C(=O)O` (stereo partly shown) [Compound 43], the activity at 0.1 µM came out at 92%. In the case of `CC(O)[C@H](NC(=O)N[C@@H](CC(N)=O)c1nc(C2CCCCC2)no1)C(=O)O` (stereo partly shown) [Compound 46], the activity at 0.1 µM was 52%. Under `CC(O)[C@H](NC(=O)N[C@@H](CC(N)=O)c1nc(C2(N)CCCC2)no1)C(=O)O` (stereo partly shown) [Compound 48] stands 47%; under `CC(O)[C@H](NC(=O)N[C@@H](Cc1cn(-c2ccccc2C(=O)O)nn1)c1nc(-c2cnccn2)no1)C(=O)O` (stereo partly shown) [Compound 31], 67%; under `CC(O)[C@H](NC(=O)N[C@@H](CC(=O)O)c1nc(-c2cnccn2)no1)C(=O)O` (stereo partly shown) [Compound 41], 73%. As for `CC(O)[C@H](NC(=O)N[C@@H](CC(N)=O)c1nc(-c2ccc(-c3ccccc3)cc2)no1)C(=O)O` (stereo partly shown) [Compound 40], the activity at 0.1 µM is 79%. The same measure for `COc1ccnc(-c2noc([C@H](CC(N)=O)NC(=O)N[C@H](C(=O)O)C(C)O)n2)c1` (stereo partly shown) [Compound 23]: 27%; for `CC(O)[C@H](NC(=O)N[C@@H](CCC(=O)O)c1nc(-c2cc(F)ccc2F)no1)C(=O)O` (stereo partly shown) [Compound 37]: 74%.

As to `CC(O)[C@H](NC(=O)N[C@@H](CC(N)=O)c1nc(-c2cccc(F)c2)no1)C(=O)O` (stereo partly shown) [Compound 24], the activity at 0.1 µM came to 50%. As to `CC(O)[C@H](NC(=O)N[C@@H](CC(N)=O)c1nc(N2CCC[C@H](O)C2)no1)C(=O)O` (stereo partly shown) [Compound 27], the activity at 0.1 µM amounted to 6%. For `CC(O)[C@H](NC(=O)N[C@@H](CCC(=O)O)c1nc(N2CCCC2)no1)C(=O)O` (stereo partly shown) [Compound 39], the activity at 0.1 µM was 39%. `CC(O)[C@H](NC(=O)N[C@@H](CC(=O)O)c1nc(N2CCCC2)no1)C(=O)O` (stereo partly shown) [Compound 38]: the activity at 0.1 µM was 27%. `CC(O)[C@H](NC(=O)N[C@@H](CC(N)=O)c1nc(-c2cnccn2)no1)C(=O)O` (stereo partly shown) [Compound 21]: the activity at 0.1 µM worked out at 39%.
